# Measured values as given in the supplement of paper PMC11061612.
# Assays:
# [1] = tested on: NCI-H1651 (Lung Adenocarcinoma); experiment: Bliss excess, mean over the matrix (fraction); higher = more synergy
# How it was run: (§1)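 Bliss excess equals the observed combination effect minus the expected value EA + EB − EA·EB, where EA and EB are the effects of each agent alone. Combination Emax is the second-highest inhibition within the matrix. Inhibition was scaled from CellTiter-Glo 2.0 luminescence, with 0 set by vehicle wells and 1 by blank wells, after 72 hours of two-drug dosing of cells plated in 1536-well plates.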
# [2] = tested on: SK-HEP-1 (Hepatocellular Carcinoma); experiment: as above
# How it was run: as §1
# EW-7 (Ewing's Sarcoma) = experiment: as above
# How it was run: as §1
# [3] = tested on: NCI-H2087 (Lung Adenocarcinoma); experiment: as above
# How it was run: as §1
# WM1552C (Melanoma) = experiment: as above
# How it was run: as §1
# IM-9 (Non-Cancerous) = experiment: as above
# How it was run: as §1
# PEO1 (Ovarian Carcinoma) = experiment: as above
# How it was run: as §1
# [4] = tested on: EPLC-272H (Other Solid Carcinomas); experiment: combination Emax (second highest fraction inhibited in the dose matrix, 72 h); higher = more inhibition; extreme values may be limits of the assay
# How it was run: as §1
# [5] = tested on: GCT (Other Solid Carcinomas); experiment: as above
# How it was run: as §1
# EW-16 (Ewing's Sarcoma) = experiment: as above
# How it was run: as §1
# NB13 (Neuroblastoma) = experiment: as above
# How it was run: as §1
# [6] = tested on: huH-1 (Hepatocellular Carcinoma); experiment: as above
# How it was run: as §1
# [7] = tested on: HT55 (Colorectal Carcinoma); experiment: as above
# How it was run: as §1
# [8] = tested on: CA46 (Burkitt's Lymphoma); experiment: as above
# How it was run: as §1
# [9] = tested on: JVM-2 (B-Cell Non-Hodgkin's Lymphoma); experiment: as above
# How it was run: as §1
# [10] = tested on: ESO26 (Esophageal Adenocarcinoma); experiment: as above
# How it was run: as §1
# [11] = tested on: NCI-H2228 (Lung Adenocarcinoma); experiment: as above
# How it was run: as §1
# [12] = tested on: KYSE-140 (Esophageal Squamous Cell Carcinoma); experiment: as above
# How it was run: as §1
# A204 (Rhabdomyosarcoma) = experiment: as above
# How it was run: as §1
# [13] = tested on: CAL-27 (Oral Cavity Carcinoma); experiment: as above
# How it was run: as §1
SMILES,Bliss excess [1],Bliss excess [2],Bliss excess (EW-7 (Ewing's Sarcoma)),Bliss excess [3],Bliss excess (WM1552C (Melanoma)),Bliss excess (IM-9 (Non-Cancerous)),Bliss excess (PEO1 (Ovarian Carcinoma)),combination Emax [4],combination Emax [5],combination Emax (EW-16 (Ewing's Sarcoma)),combination Emax (NB13 (Neuroblastoma)),combination Emax [6],combination Emax [7],combination Emax [8],combination Emax [9],combination Emax [10],combination Emax [11],combination Emax [12],combination Emax (A204 (Rhabdomyosarcoma)),combination Emax [13]
"CN(CCO)CC[C@H](CSc1ccccc1)Nc1ccc(S(=O)(=O)NC(=O)c2ccc(N3CCC([C@@H](O)c4ccccc4-c4ccc(Cl)cc4)CC3)cc2)cc1S(=O)(=O)C(F)(F)F [AZD4320] + C[C@@H](Nc1cc(F)cc(F)c1)c1cc(C(=O)N(C)C)cc2c(=O)cc(N3CCOCC3)oc12 [AZD8186] (first compound max 1 µM, 7x7, partner max 3 µM)",-0.0074,0.0099,-0.014,-0.0271,0.0104,0.0079,-0.0468,0.602,0.442,0.937,1,0.229,0.422,0.196,0.892,0.325,0.329,0.401,0.451,0.659
"CN(CCO)CC[C@H](CSc1ccccc1)Nc1ccc(S(=O)(=O)NC(=O)c2ccc(N3CCC([C@@H](O)c4ccccc4-c4ccc(Cl)cc4)CC3)cc2)cc1S(=O)(=O)C(F)(F)F [AZD4320] + Cc1cc2ncnn2cc1Nc1ncc2c(n1)n(C1CCOCC1)c(=O)n2C [AZD7648] (first compound max 1 µM, 7x7, partner max 10 µM)",-0.0454,-0.051,0.0633,-0.0145,-0.0505,0.0473,-0.0389,0.525,0.25,0.389,1,0.127,0.196,0.306,0.642,0.0775,0.296,0.203,0.273,0.0955
"CN(CCO)CC[C@H](CSc1ccccc1)Nc1ccc(S(=O)(=O)NC(=O)c2ccc(N3CCC([C@@H](O)c4ccccc4-c4ccc(Cl)cc4)CC3)cc2)cc1S(=O)(=O)C(F)(F)F [AZD4320] + Cn1cnc2c(F)c(Nc3ccc(Br)cc3Cl)c(C(=O)NOCCO)cc21 [Selumetinib] (first compound max 1 µM, 7x7, partner max 3 µM)",0.0238,0.0008,0.0295,0.0142,0.0035,0.051,-0.0044,0.562,0.352,0.913,1,0.291,0.721,0.19,0.889,0.3,0.203,0.289,0.325,0.661
"Cc1cc2ncnn2cc1Nc1ncc2c(n1)n(C1CCOCC1)c(=O)n2C [AZD7648] + C=CCn1c(=O)c2cnc(Nc3ccc(N4CCN(C)CC4)cc3)nc2n1-c1cccc(C(C)(C)O)n1 [AZD1775] (first compound max 10 µM, partner max 1 µM)",-0.0812,0.0387,0.0024,-0.0176,-0.0111,-0.0659,0.0164,0.832,0.452,0.448,0.91,0.746,0.341,0.693,0.899,0.466,0.561,0.838,0.43,0.345
"Cc1cc2ncnn2cc1Nc1ncc2c(n1)n(C1CCOCC1)c(=O)n2C [AZD7648] + CCN(CCO)CCCOc1ccc2c(Nc3cc(CC(=O)Nc4cccc(F)c4)[nH]n3)ncnc2c1 [AZD2811] (first compound max 10 µM, 7x7, partner max 1 µM)",0.0404,0.0517,0.043,-0.0209,0.0025,-0.0432,-0.0141,0.496,0.312,0.445,0.518,0.561,0.229,0.418,0.7,0,0.434,0.353,0.467,0.583
"Cc1cc2ncnn2cc1Nc1ncc2c(n1)n(C1CCOCC1)c(=O)n2C [AZD7648] + CN(C)CCCOc1ccc(-c2ccc3ncc4c(c3c2)n(C2CCOCC2)c(=O)n4C)cn1 [AZD0156] (first compound max 10 µM, 7x7, partner max 1 µM)",0.0089,-0.0146,-0.03,-0.0115,0.0249,-0.0509,-0.0136,0.458,0.343,0.192,0.303,0.3,0.169,0.288,0.622,0,0.407,0.216,0.384,0.222
"Cc1cc2ncnn2cc1Nc1ncc2c(n1)n(C1CCOCC1)c(=O)n2C [AZD7648] + C[C@@H]1COCCN1C2=NC(=NC(=C2)C3(CC3)[S@](=N)(=O)C)C4=C5C=CNC5=NC=C4 [AZD6738] (first compound max 10 µM, 7x7, partner max 10 µM)",0.0217,0.0239,-0.0058,0.0177,0.0143,-0.0417,-0.0121,0.879,0.245,0.69,0.919,0.8,0.429,0.492,0.842,0.234,0.514,0.927,0.439,0.431
"Cc1cc2ncnn2cc1Nc1ncc2c(n1)n(C1CCOCC1)c(=O)n2C [AZD7648] + O=C(c1cc(Cc2n[nH]c(=O)c3ccccc23)ccc1F)N1CCN(C(=O)C2CC2)CC1 [Olaparib] (first compound max 10 µM, 7x7, partner max 10 µM)",-0.0356,-0.0428,-0.0027,-0.0207,-0.0418,-0.0144,-0.0374,0.53,0.243,0.47,0.263,0.198,0.129,0.221,0.624,0.155,0.353,0.197,0.246,0.347
"Cc1nc(Nc2ncc(C(=O)Nc3c(C)cccc3Cl)s2)cc(N2CCN(CCO)CC2)n1 [Dasatinib] + CC(=O)Nc1cccc(-n2c(=O)n(C3CC3)c(=O)c3c(Nc4ccc(I)cc4F)n(C)c(=O)c(C)c32)c1 [Trametinib] (first compound max 2 µM, 7x7, partner max 1 µM)",-0.042,-0.0294,-0.0074,-0.0024,0.0003,-0.0439,-0.0433,0.956,0.554,0.281,0.169,0.305,0.751,0.306,0.742,0.464,0.737,0.522,0.512,0.868
"COc1cc2ncnc(Nc3ccc(F)c(Cl)c3)c2cc1OCCCN1CCOCC1 [Gefitinib] + CC(C)n1c(=O)n(C)c2cnc3cc(F)c(-c4ccc(OCCCN5CCCCC5)nc4)cc3c21 [AZD1390] (first compound max 10 µM, 7x7, partner max 0.3 µM)",-0.0554,0.0092,-0.0416,-0.135,-0.0589,-0.0511,-0.0346,0.565,0.12,0.176,0.178,0.134,0.353,0.297,0.528,0.571,0.203,0.534,0.139,0.689
"COc1cc2c(cc1OCCCCCOc1cc3c(cc1OC)C(=O)N1C=C(C)C[C@H]1C=N3)N=C[C@@H]1CC(C)=CN1C2=O [SG3199] + O=C(c1cc(Cc2n[nH]c(=O)c3ccccc23)ccc1F)N1CCN(C(=O)C2CC2)CC1 [Olaparib] (first compound max 0.001 µM, 7x7, partner max 10 µM)",-0.0788,-0.0582,-0.0341,-0.0224,-0.0462,-0.0059,-0.0397,0.123,0.204,0.445,0.213,0.142,0.149,0.157,0.466,0.272,0.115,0.0926,0.178,0.288
"C[C@@H](c1ccc2nccn2c1)n1nnc2ncc(-c3cnn(C)c3)nc21 [Savolitinib] + CC1(C)CCC(CN2CCN(c3ccc(C(=O)NS(=O)(=O)c4ccc(NCC5CCOCC5)c([N+](=O)[O-])c4)c(Oc4cnc5[nH]ccc5c4)c3)CC2)=C(c2ccc(Cl)cc2)C1 [Venetoclax] (first compound max 1 µM, 7x7, partner max 1 µM)",-0.0356,-0.0267,-0.0242,-0.0716,-0.0623,0.0452,-0.0441,0.205,0.0973,0.12,0.152,0.149,0.0925,0.0492,0.141,0.0719,0.114,0.305,0.0862,0.0502
"C[C@@H](c1ccc2nccn2c1)n1nnc2ncc(-c3cnn(C)c3)nc21 [Savolitinib] + Cc1c2c(nn1C)CSCc1cc(n(C)n1)CSc1cc(c3ccccc3c1)OCCCc1c(C(=O)O)n(C)c3c-2c(Cl)ccc13 [AZD5991] (first compound max 1 µM, 7x7, partner max 1 µM)",-0.0358,-0.0402,-0.0336,0.0097,-0.079,0.0478,-0.0397,0.462,0.211,0.167,0.22,0.16,0.187,0.0743,0.181,0.169,0.195,0.317,0.167,0.494
